Broadly, the melting point is the temperature, or range, at which the solid turns liquid. `CCOC(=O)Cc1c(C)n(Cc2ccc(SC)cc2)c2ccc(OCc3nc4ccccc4s3)cc12` registered a melting point of 101 to 102 °C.

`CCc1nc2c(C)cc(C)nc2n1Cc1ccc(C(=C(Cl)c2nnn[nH]2)c2ccccc2)cc1`: the melting point was 119 to 132 °C.

`CN1C(=O)C2=C(c3ccccc3)N(C)C(=O)C2=C1c1ccccc1`: the melting point is 236 to 238 °C.

For the compound `Cc1c(-c2ccccc2)oc2c(NC(=O)NCCCl)cccc2c1=O`, the melting point lay within 213 to 214 °C.

Take `COc1cc2c(cc1-c1cccnc1)-c1c(-c3cccs3)c3c(n1CC2)C(=O)N(C(C)C)CCN(C(C)=O)C3`: the melting point lay within 225 to 226 °C.

Regarding `Ic1ccc(OC2CCCC2)cc1`, the melting point fell in the range of 50 to 52 °C.

As for `CC1SC(=O)NN=C1c1ccc2c(c1)C(C)(C)C(=O)N2C(=O)Oc1ccccc1` (stereo not drawn), the melting point is 248 °C.

For `NC(=O)CC1(c2ccccc2)C(=O)Nc2ccc(Cl)cc21` (stereo not drawn), the melting point fell in the range of 247 to 248 °C.

Turning to `Cn1ncnc1COc1nn2c(-c3ccccc3F)nncc2c1-c1cccc(C#N)c1`, the melting point fell in the range of 194 to 196 °C.

With `Cc1nc(C)c(CC(=O)O)c(-c2ccccc2)c1CC(=O)O`, the melting point lay in the range of 137 to 138 °C.

For `C=C[C@H]1CN2CC[C@H]1C[C@H]2[C@H](OC(=O)c1ccc(OCCCCCC)cc1)c1ccnc2ccccc12`, the melting point worked out at 70 °C.

On to `CC1C(=O)Oc2cc(N3CCCC3)ccc21` (stereo not drawn), for which the melting point lay in the range of 101 to 103 °C.

The compound `Cc1ccc(C2c3c(C)c(N4Cc5ccccc5C4)c(C)c(C)c3OC2(C)C)cc1` (stereo not drawn) gave a melting point of 141 to 143 °C.

In turn, `CCc1nc(N)nc(N)c1N1CCN(c2ccc(C(=O)O)cc2)CC1` registered a melting point above 300 °C.

The compound `Clc1nc(C(c2ccccc2)(c2ccccc2)n2ccnc2)nc(Cl)c1Cl` showed a melting point of 142 to 146 °C.

For the compound `COc1ccc(CN(C)CCCCCc2ccc(NC(=O)c3cccc4c(=O)c5cccc(F)c5[nH]c34)cc2)cc1OC`, the melting point stood at 130 °C.

Take `C=C(CN(C)C)C(O)c1ncc2c(c1O)COC2c1ccc(F)cc1` (stereo not drawn): the melting point is 198 °C.

Turning to `O=S1CCN(c2ccc(-n3cc(CN=C=S)nn3)cc2F)CC1`, the melting point is 182 to 184 °C.

For `CCCCCCCCCCCCCCCCCCOc1cc(NC(=O)OCc2ccccc2)cc(OCCCCC(=O)OC)c1`, the melting point was in the range of 59 to 62 °C.

As to `CC1(C)C(C(=O)O)C1C(C(Cl)(Br)C(F)(F)F)S(C)(=O)=O` (stereo not drawn), the melting point was found to be 138 °C.

`CO/N=C(/C(C)=O)C(=O)OC(C)(C)C` returned a melting point of 80 to 85 °C.

`COCc1cccc(C=CC(O)c2ccccc2)c1NC(=O)CC1c2ccccc2Oc2ccccc21` (stereo not drawn) returned a melting point of 204 to 206 °C.

As to `O=C(O)CNC1C2CC3CC(C2)CC1C3` (stereo not drawn), the melting point was 255 °C.

Compound `CCCOc1ccccc1C1=NC(=O)C2=CN=NC2=N1` displayed a melting point of 170 to 171 °C.

The compound `CCOC(=O)c1cccc2ncc(CN(C)C)n12` gave a melting point of 117 to 118 °C.

Turning to `CCCOC(=O)CCNCC(O)COc1ccccc1C#N` (stereo not drawn), the melting point turned out to be 89 °C.

`CCCC1CCc2cc(NC(=O)OCC)ccc2O1` (stereo not drawn) had a melting point of 94 °C.

Compound `COc1nc(C)cnc1NS(=O)(=O)c1cccnc1-c1ccc(C)cc1` yielded a melting point of 184 to 185 °C.

For the compound `O=C(OCOC(=O)C1CCc2c(c3ccccc3n2C(=O)c2ccccc2)C1)c1ccccc1` (stereo not drawn), the melting point lay within 84 to 86 °C.

With `COc1cc(OC)cc(Sc2ccc([N+](=O)[O-])cc2)c1`, the melting point lay within 63 to 65 °C.

`CCOc1c(Nc2ccc3[nH]cnc3c2)c(=O)c1=O` showed a melting point of 243 to 244 °C.

Take `CS(=O)(=O)c1ccc(-c2cnn(CC(F)(F)F)c(=O)c2NCCCO)cc1`: the melting point is 152 to 154 °C.

On to `CCC1CCC(=O)C=C1c1ccc(OCC(=O)OC(C)(C)C(=O)O)c(Cl)c1Cl` (stereo not drawn), for which the melting point lay in the range of 167 to 168 °C.

Compound `Cc1cc(Cl)c2cc(F)c(OCc3ccccc3)cc2n1` came in with a melting point of 110 to 111 °C.

In turn, `COc1ccc(C(=O)Nc2ccc(S(N)(=O)=O)cc2)c(SSc2cc(OC)ccc2C(=O)Nc2ccc(S(N)(=O)=O)cc2)c1` registered a melting point of 315 to 316 °C.

On to `NCCCNc1nccc(NC(N)=NCC(F)(F)F)n1`, for which the melting point stood at 159 °C.

`O=C1Nc2ccccc2SC1CCCCl` (stereo not drawn) came in with a melting point of 98 to 99 °C.

Turning to `O=C(/C=C/C=C(c1ccc(F)cc1)c1ccc(F)cc1)NCCCCc1cccnc1`, the melting point was in the range of 155 to 156 °C.

In turn, `CC(C)(CC(=O)c1ccc(Cl)c(Cl)c1)C(=O)O` registered a melting point of 137 to 138 °C.

Regarding `C#Cc1ccc(NC(=O)OC(C)(C)C)c([N+](=O)[O-])c1`, the melting point is 102 °C.

Consider `Cc1cc(C#N)ccc1C1(CC2c3ccccc3Oc3ccccc32)NC(=O)NC1=O` (stereo not drawn), for which the melting point fell in the range of 148 to 152 °C.

In turn, `COc1ccc(C)cc1NC(=O)Nc1ccc(N2CCN(C(=O)Oc3ccc(CCO)cc3Cl)CC2)cc1` had a melting point of 189 to 190 °C.

For `COc1cc(C)cc(OC)c1-c1nc(N)n[nH]1`, the melting point was determined as 286 °C.

For the compound `Nc1n[nH]c2ccc(Cl)cc12`, the melting point is 162 to 163 °C.

`CCc1cc2oc(=O)c([N+](=O)[O-])c(O)c2cc1CC`: the melting point was in the range of 115 to 117 °C.

`CC1=N/C(=C\c2c[nH]c3cc(C)ccc23)C(=O)O1` had a melting point of 194 to 196 °C.

`C/C=C/Cn1nc(C(=O)c2cccc(O)c2)c2ccccc21` came in with a melting point of 75 to 78 °C.

For the compound `COc1cn(-c2ccc(N3CCOCC3)c(F)c2F)nc(-c2ccnn2-c2ccccc2)c1=O`, the melting point lay within 182 to 183 °C.

On to `CS(=O)(=O)Nc1ccc(C(=O)CCC(=O)O)cc1`, for which the melting point fell in the range of 198 to 200 °C.

`CCc1c(C(=O)OC(C)C)ncc2[nH]c3ccc4nc(C)cnc4c3c12` had a melting point of 236 to 238 °C.

`CCCCn1nc(C)c(CO)c1Cc1ccc(-c2ccccc2-c2nnn[nH]2)cc1` had a melting point of 120 to 126 °C.

In turn, `CN1C(=O)c2cc(CCc3ccncc3)cnc2N(C2CC2)c2nc(Cl)ccc21` registered a melting point of 218 to 219 °C.

Turning to `CC(=O)C=Cc1c(Cl)nc(C)c2c1CCCC2`, the melting point is 90 °C.

Compound `CCCCCCCCCCC(O)c1ccc2oc([N+](=O)[O-])c(-c3ccccc3)c2c1` (stereo not drawn) gave a melting point of 84 to 85 °C.

In turn, `COc1cc(OC)nc(Oc2cccc3c2C(=O)OC3F)n1` (stereo not drawn) showed a melting point of 172 to 174 °C.

As to `O=C1NCc2cc(C(O)c3cccnc3)ccc2N1` (stereo not drawn), the melting point was 272 °C.

As to `CC(=O)NCC1CN(c2ccc(-c3cccc(CCl)c3)c(F)c2)C(=O)O1` (stereo not drawn), the melting point was 128 to 130 °C.

For `O=C(NOC(=O)Oc1ccccc1)Oc1ccccc1`, the melting point lay within 80 to 82 °C.

Consider `COc1c(OCc2ccccc2)c(OC)c2c(=O)cc(-c3ccc(OCc4ccccc4)cc3)oc2c1OC`, for which the melting point fell in the range of 172 to 173 °C.

As to `CCn1cc(C(=O)O)c(=O)c2cc(F)c(-n3cccc3)cc21`, the melting point is 251 to 252 °C.

Compound `NC(=O)c1cnn2cccc2c1NCC1CCCO1` (stereo not drawn) displayed a melting point of 120 °C.

`CCC(=O)c1cccc2nc3n(c12)CCCN3c1ccc(Cl)cc1Cl`: the melting point lay in the range of 195 to 196 °C.

In turn, `C=CCOc1ccccc1C(=O)Nc1c(CCC)nn(C)c1C(N)=O` registered a melting point of 132 to 134 °C.

In turn, `CNC(=O)CCC(=NNC(N)=S)c1ccccc1` came in with a melting point of 205 to 207 °C.

`COC(=S)NC(=O)c1ccccc1-c1ccc(C)cc1`: the melting point was in the range of 149 to 150 °C.

Consider `C#Cc1cccc(NC(=O)C(Cl)Cl)c1`, for which the melting point was 99 to 100 °C.

Regarding `O=C(Nc1ccc(C2=CN(C(=O)OCc3ccccc3)CCC2)c(F)c1)OCc1ccccc1`, the melting point lay within 138 to 139 °C.

`COc1cc(OC)c(-c2cccs2)cc1/C=C/C(=O)c1ccc(S(=O)(=O)NCC(F)(F)F)cc1` returned a melting point of 167 to 168 °C.

Compound `Cc1ccc2c(c1)C=Cc1nc(C)oc1C2c1cn(Cc2cccc(C(=O)O)c2)c(=O)[nH]c1=S` (stereo not drawn) had a melting point of 180 °C.

Compound `COC(=O)C1C2C=CC(C2)C1N(C)S(=O)(=O)c1ccc(OCc2ccccc2)cc1` (stereo not drawn) registered a melting point of 103 to 104 °C.

Consider `COc1cc2c(cc1OC(C)C)-c1c(-c3cccnc3)c3c(n1CC2)C(=O)N(C(C)(C)C)CCOC3`, for which the melting point is 193 to 194 °C.

On to `S=C1CSc2ccccc2CN1`, for which the melting point fell in the range of 215 to 219 °C.

The compound `CCC(=O)NC[C@H]1CN(c2ccc(N3CCC(=CC#N)CC3)c(F)c2)C(=O)O1` showed a melting point of 200 to 202 °C.

As for `COC(=O)c1ccc(NC(=O)Cc2ccc(OC)c(C34CC5CC(CC(C5)C3)C4)c2)cc1`, the melting point lay within 146 to 147 °C.

On to `CSc1nc(C)c(Cc2cccnc2)c(=O)[nH]1`, for which the melting point lay in the range of 208 to 211 °C.

Take `CCOC(=O)/C=C/c1c(-c2ccccc2)c2ccccc2c(=O)n1C`: the melting point is 163 to 165 °C.

The compound `CCC(C)(CC)C(=O)N[C@H]1C[C@@H]2c3cccc4[nH]c(C)c(c34)C[C@H]2N(C)C1` returned a melting point of 191 to 192 °C.

`CN1CCN(c2cccc3c2C[C@H](NC(=O)c2ccc(C(F)(F)F)cc2)CO3)CC1` had a melting point of 212 to 214 °C.

`CSc1ncc(Cc2cccnc2)c(=S)[nH]1` gave a melting point of 211 to 213 °C.

As for `COc1ccc(-n2ncc(-c3ccc(S(C)(=O)=O)cc3)c(-c3ccc(F)cc3)c2=O)cc1F`, the melting point lay in the range of 97 to 101 °C.

As for `CC(=O)Oc1ccc(-n2nc(C(F)(F)F)cc2-c2ccc(S(C)(=O)=O)cc2)cc1`, the melting point lay in the range of 142 to 145 °C.

`O=C(OCc1ccccc1)N1CCC(c2nc(CO)c(-c3ccc(Cl)cc3)o2)CC1`: the melting point lay within 97 to 99 °C.

On to `Cc1ccc(OC2CCN(C(=O)C(=O)Nc3ccc4c(c3)CC(=O)N4)CC2)cc1`, for which the melting point was 109 to 112 °C.

For the compound `Nc1c(Cl)cc(C(O)CNCCCCCC(=O)OCCOc2ccccc2)cc1Cl` (stereo not drawn), the melting point was in the range of 46 to 47 °C.

Compound `OCc1cn(Cc2ccc(OCc3coc(-c4ccccc4)n3)cc2)nc1-c1cccs1` showed a melting point of 155 to 156 °C.

Consider `COC(=O)NC(=N)c1ccc(-n2nc(C)n(-c3ccc(CCC(=O)OCC(C)C)cc3)c2=O)cc1`, for which the melting point is 200 to 201 °C.

Turning to `CN1C(=O)C(c2ccc(OC(F)F)cc2)(c2cccc(COCCF)c2)N=C1N` (stereo not drawn), the melting point fell in the range of 40 to 43 °C.

`CC#CCOc1cc(-n2nnn(CCC)c2=O)c(Cl)cc1Cl` came in with a melting point of 58 to 60 °C.
